Results: patent US20130040882A1, “USE OF FIBROBLAST GROWTH FACTOR FRAGMENTS” (NOVARTIS AG, priority 2003, published 2013)

Test system: uterine gene expression
Test: Gene expression profiling (HGU133A) in the uterus of ovariectomized monkeys treated with estradiol, tamoxifen or raloxifene
Format: in vivo, cynomolgus monkeys (Macaca fascicularis)

O=C(c1ccc(OCCN2CCCCC2)cc1)c1c(-c2ccc(O)cc2)sc2cc(O)ccc12 [raloxifene]
Uterine expression increase: insulin-like GF binding protein 2 and insulin-like GF 1 (compared with OVX controls): approximately 2 fold
Effect on transporter, redox, and cell cycle genes in the uterus (relative to estradiol) (cynomolgus monkey, in vivo): little or no effect
Uterine expression changes: IGFBP 5, latent TGF beta binding protein 1, cysteine-rich angiogenic inducer 61 (cynomolgus monkey, in vivo): only modest changes
Uterine expression of the remaining signal transduction genes examined (tamoxifen: except for LDL receptor adaptor protein): downregulated
Fold change relative to OVX: ATPase, H+ transporting, lysosomal 38 kda, V0 subunit d isoform 1 (uterus, OVX monkeys): 1.1 fold
Fold change relative to OVX: ATPase, Na+/K+ transporting, beta 3 polypeptide (uterus, OVX monkeys): 0.9 fold
Fold change relative to OVX: Biglycan (uterus, OVX monkeys): 2.4 fold
Fold change relative to OVX: CDC28 protein kinase regulatory subunit 2 (uterus, OVX monkeys): 0.8 fold
Fold change relative to OVX: Cadherin 11, type 2, OB-cadherin (osteoblast) (uterus, OVX monkeys): 1.3 fold
Fold change relative to OVX: Calcium channel, voltage-dependent, beta 2 subunit (uterus, OVX monkeys): 0.8 fold
Fold change relative to OVX: Catenin (cadherin-associated protein), alpha-like 1 (uterus, OVX monkeys): 0.8 fold
Fold change relative to OVX: Chitinase 3-like 1 (cartilage glycoprotein-39) (uterus, OVX monkeys): 1.1 fold
Fold change relative to OVX: Chloride intracellular channel 4 (uterus, OVX monkeys): 1.4 fold
Fold change relative to OVX: Chondroitin sulfate proteoglycan 2 (versican) (uterus, OVX monkeys): 1.4 fold
Fold change relative to OVX: Collagen, type I, alpha 1 (uterus, OVX monkeys): 1.8 fold
Fold change relative to OVX: Collagen, type IV, alpha 2 (uterus, OVX monkeys): 1.4 fold
Fold change relative to OVX: Collagen, type V, alpha 1 (uterus, OVX monkeys): 1.2 fold
Fold change relative to OVX: Collagen, type VI, alpha 3 (uterus, OVX monkeys): 1.2 fold
Fold change relative to OVX: Collagen, type VIII, alpha 2 (uterus, OVX monkeys): 1.9 fold
Fold change relative to OVX: Cyclin D1 (PRAD1: parathyroid adenomatosis 1) (uterus, OVX monkeys): 1.2 fold
Fold change relative to OVX: Cysteine-rich, angiogenic inducer, 61 (uterus, OVX monkeys): 1.7 fold
Fold change relative to OVX: Cytochrome c oxidase subunit via polypeptide 1 (uterus, OVX monkeys): 1.0 fold
Fold change relative to OVX: Cytochrome c oxidase subunit viia polypeptide 2 (liver) (uterus, OVX monkeys): 1.1 fold
Fold change relative to OVX: Dermatopontin (uterus, OVX monkeys): 1.5 fold
Fold change relative to OVX: Dishevelled associated activator of morphogenesis 1 (uterus, OVX monkeys): 0.9 fold
Fold change relative to OVX: Fibroblast growth factor 2 (basic) (uterus, OVX monkeys): 2.0 fold
Fold change relative to OVX: Fibulin 1 (uterus, OVX monkeys): 1.4 fold
Fold change relative to OVX: Four and a half LIM domains 2 (uterus, OVX monkeys): 0.9 fold
Fold change relative to OVX: G1 to S phase transition 1 (uterus, OVX monkeys): 0.9 fold
Fold change relative to OVX: Growth associated protein 43 (uterus, OVX monkeys): 1.7 fold
Fold change relative to OVX: H2A histone family, member Y (uterus, OVX monkeys): 1.0 fold
Fold change relative to OVX: Heparan sulfate proteoglycan 2 (perlecan) (uterus, OVX monkeys): 1.2 fold
Fold change relative to OVX: Histone H2A.F/Z variant (uterus, OVX monkeys): 1.0 fold
Fold change relative to OVX: Insulin-like growth factor binding protein 2, 36 kda (uterus, OVX monkeys): 1.1 fold
Fold change relative to OVX: Insulin-like growth factor binding protein 5 (uterus, OVX monkeys): 2.0 fold
Fold change relative to OVX: Integrin, beta 5 (uterus, OVX monkeys): 1.5 fold
Fold change relative to OVX: Intercrine-alpha, mrna sequence (uterus, OVX monkeys): 1.3 fold
Fold change relative to OVX: LDL receptor adaptor protein (uterus, OVX monkeys): 1.0 fold
Fold change relative to OVX: LIM and senescent cell antigen-like domains 1 (uterus, OVX monkeys): 2.2 fold
Fold change relative to OVX: Laminin, beta 1 (uterus, OVX monkeys): 1.1 fold
Fold change relative to OVX: Latent transforming growth factor beta binding protein 1 (uterus, OVX monkeys): 1.8 fold
Fold change relative to OVX: Matrix metalloproteinase 19 (uterus, OVX monkeys): 0.9 fold
Fold change relative to OVX: Mitogen-activated protein kinase kinase kinase kinase 4 (uterus, OVX monkeys): 0.8 fold
Fold change relative to OVX: Nidogen (enactin) (uterus, OVX monkeys): 2.4 fold
Fold change relative to OVX: Osteoglycin (osteoinductive factor, mimecan) (uterus, OVX monkeys): 1.6 fold
Fold change relative to OVX: Peroxiredoxin 1 (uterus, OVX monkeys): 1.0 fold
Fold change relative to OVX: Phosphatase and tensin homolog (mutated in multiple advanced cancers 1) (uterus, OVX monkeys): 1.1 fold
Fold change relative to OVX: Phospholipid transfer protein (uterus, OVX monkeys): 1.2 fold
Fold change relative to OVX: Pituitary tumour-transforming 1 interacting protein (uterus, OVX monkeys): 1.5 fold
Fold change relative to OVX: Procollagen C-endopeptidase enhancer (uterus, OVX monkeys): 1.7 fold
Fold change relative to OVX: Procollagen-proline, 2-oxoglutarate 4-dioxygenase (proline 4-hydroxylase), alpha polypeptide II (uterus, OVX monkeys): 1.2 fold
Fold change relative to OVX: Progesterone receptor (uterus, OVX monkeys): 1.9 fold
Fold change relative to OVX: Protein tyrosine kinase 9 (uterus, OVX monkeys): 1.2 fold
Fold change relative to OVX: SET domain, bifurcated 1 (uterus, OVX monkeys): 1.1 fold
Fold change relative to OVX: SPARC-like 1 (mast9, hevin) (uterus, OVX monkeys): 1.7 fold
Fold change relative to OVX: Secreted frizzled-related protein 1 (uterus, OVX monkeys): 1.6 fold
Fold change relative to OVX: Secreted frizzled-related protein 4 (uterus, OVX monkeys): 0.8 fold
Fold change relative to OVX: Secreted protein, acidic, cysteine-rich (osteonectin) (uterus, OVX monkeys): 1.7 fold
Fold change relative to OVX: Serine (or cysteine) proteinase inhibitor, clade H (heat shock protein 47), member 1, (collagen binding protein 1) (uterus, OVX monkeys): 1.4 fold
Fold change relative to OVX: Solute carrier family 22 (organic cation transporter), member 1-like (uterus, OVX monkeys): 1.0 fold
Fold change relative to OVX: Solute carrier family 25 (mitochondrial carrier; adenine nucleotide translocator), member 5 (uterus, OVX monkeys): 1.1 fold
Fold change relative to OVX: Stem cell growth factor; lymphocyte secreted C-type lectin (uterus, OVX monkeys): 1.2 fold
Fold change relative to OVX: Tenascin C (hexabrachion) (uterus, OVX monkeys): 1.0 fold
Fold change relative to OVX: Testis Enhanced Gene Transcript (Bax Inhibitor 1) (uterus, OVX monkeys): 1.1 fold
Fold change relative to OVX: Thioredoxin interacting protein (uterus, OVX monkeys): 1.0 fold
Fold change relative to OVX: Transforming growth factor, beta-induced, 68 kda (uterus, OVX monkeys): 1.7 fold
Fold change relative to OVX: Ubiquinol-cytochrome c reductase, Rieske iron-sulfur polypeptide 1 (uterus, OVX monkeys): 1.0 fold
Fold change relative to OVX: Wingless-type MMTV integration site family, member 2B (uterus, OVX monkeys): 1.4 fold
Fold change relative to OVX: Wingless-type MMTV integration site family, member 16 (uterus, OVX monkeys): 0.9 fold
Fold change relative to SHAM control: ATPase, H+ transporting, lysosomal 38 kda, V0 subunit d isoform 1 (uterus, OVX monkeys): 1.0 fold
Fold change relative to SHAM control: ATPase, Na+/K+ transporting, beta 3 polypeptide (uterus, OVX monkeys): 0.5 fold
Fold change relative to SHAM control: Biglycan (uterus, OVX monkeys): 0.9 fold
Fold change relative to SHAM control: CDC28 protein kinase regulatory subunit 2 (uterus, OVX monkeys): 0.5 fold
Fold change relative to SHAM control: Chitinase 3-like 1 (cartilage glycoprotein-39) (uterus, OVX monkeys): 0.8 fold
Fold change relative to SHAM control: Chloride intracellular channel 4 (uterus, OVX monkeys): 0.7 fold
Fold change relative to SHAM control: Chondroitin sulfate proteoglycan 2 (versican) (uterus, OVX monkeys): 1.0 fold
Fold change relative to SHAM control: Collagen, type I, alpha 1 (uterus, OVX monkeys): 0.7 fold
Fold change relative to SHAM control: Collagen, type IV, alpha 2 (uterus, OVX monkeys): 0.8 fold
Fold change relative to SHAM control: Collagen, type V, alpha 1 (uterus, OVX monkeys): 0.6 fold
Fold change relative to SHAM control: Collagen, type VI, alpha 3 (uterus, OVX monkeys): 0.7 fold
Fold change relative to SHAM control: Collagen, type VIII, alpha 2 (uterus, OVX monkeys): 1.1 fold
Fold change relative to SHAM control: Cyclin D1 (PRAD1: parathyroid adenomatosis 1) (uterus, OVX monkeys): 1.3 fold
Fold change relative to SHAM control: Cysteine-rich, angiogenic inducer, 61 (uterus, OVX monkeys): 0.9 fold
Fold change relative to SHAM control: Cytochrome c oxidase subunit via polypeptide 1 (uterus, OVX monkeys): 0.8 fold
Fold change relative to SHAM control: Cytochrome c oxidase subunit viia polypeptide 2 (liver) (uterus, OVX monkeys): 1.1 fold
Fold change relative to SHAM control: Dermatopontin (uterus, OVX monkeys): 0.8 fold
Fold change relative to SHAM control: Fibroblast growth factor 2 (basic) (uterus, OVX monkeys): 1.0 fold
